Values of other authors in patent US10980860B2, “Diagnosis, prevention and treatment of diseases of the joint” (Ascendis Pharma A/S, priority 2012, dated 2021).

Test system: osteoarthritis
Details: injection into the joint; Chevalier et al, J. Rheumatol 32 (2005); cited from earlier work

IL-1ra: IL-1ra (Anakinra, Kineret®, Swedish Orphan Biovitrum AB)
Reduction of symptoms of osteoarthritis: not significantly reducing the symptoms of osteoarthritis
